Laboratory results published in the supplement of paper PMC10307832.

Tests used:
Assay in all cases: relative viability (nuclei count vs DMSO), 5 days (fraction); higher = more cells survive
[1] = tested on: PC-14
Outline: (§1)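 Lung cancer cell lines were seeded in 1536-well plates and dosed by pin tool the next day, with either a single drug or a fixed anchor-drug dose combined with five library-drug doses (not always all listed) spaced in √10 steps. Five days later, one step fixed the cells and stained their nuclei (final 0.05% Triton X-100, 1% formaldehyde, 1 ug/ml Hoechst), and nuclei were counted on 4× images. Relative viability is the nuclei count in treated wells divided by the count in vehicle wells, and each value is the median of duplicate plates.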

[2] = tested on: H3255
Outline: as §1

[3] = tested on: SW 1573
Outline: as §1

[4] = tested on: NCI-H1915
Outline: as §1

[5] = tested on: BEN
Outline: as §1

[6] = tested on: NCI-H358
Outline: as §1

[7] = tested on: NCI-H661
Outline: as §1

[8] = tested on: NCI-H1993
Outline: as §1

[9] = tested on: NCI-H727
Outline: as §1

[10] = tested on: NCI-H2347
Outline: as §1

[11] = tested on: HOP-62
Outline: as §1

[12] = tested on: NCI-H2023
Outline: as §1

[13] = tested on: NCI-H2342
Outline: as §1

[14] = tested on: NCI-H2085
Outline: as §1

[15] = tested on: NCI-H2126
Outline: as §1

[16] = tested on: EMC-BAC-2
Outline: as §1

[17] = tested on: NCI-H647
Outline: as §1

[18] = tested on: NCI-H1563
Outline: as §1

[19] = tested on: LXF-289
Outline: as §1

[20] = tested on: NCI-H2009
Outline: as §1

[21] = tested on: SK-LU-1
Outline: as §1

[22] = tested on: NCI-H322M
Outline: as §1

[23] = tested on: NCI-H1650
Outline: as §1

[24] = tested on: LCLC-97TM1
Outline: as §1

Structure (SMILES): C[C@@H]1CN(CC(=O)Nc2ccc3c(c2)Cc2cccc(-c4cc(=O)cc(N5CCOCC5)o4)c2S3)C[C@H](C)O1 + COc1cccc2cc(-c3nc([C@H]4CC[C@H](C(=O)O)CC4)n4ncnc(N)c34)[nH]c12 [OSI-027] (partner 0.5 µM)
- relative viability ([1]; first compound 0.04 µM): 1.02
- relative viability ([1]; first compound 0.1265 µM): 0.761
- relative viability ([1]; first compound 0.4 µM): 0.744
- relative viability ([1]; first compound 4 µM): 0.653
- relative viability ([2]; first compound 0.04 µM): 0.599
- relative viability ([2]; first compound 0.1265 µM): 0.624
- relative viability ([2]; first compound 0.4 µM): 0.48
- relative viability ([2]; first compound 4 µM): 0.491
- relative viability ([3]; first compound 0.04 µM): 0.796
- relative viability ([3]; first compound 0.1265 µM): 0.72
- relative viability ([3]; first compound 0.4 µM): 0.465
- relative viability ([3]; first compound 4 µM): 0.604
- relative viability ([4]; first compound 0.04 µM): 0.623
- relative viability ([4]; first compound 0.1265 µM): 0.682
- relative viability ([4]; first compound 0.4 µM): 0.632
- relative viability ([4]; first compound 4 µM): 0.497
- relative viability ([5]; first compound 0.04 µM): 0.288
- relative viability ([5]; first compound 0.1265 µM): 0.28
- relative viability ([5]; first compound 0.4 µM): 0.305
- relative viability ([5]; first compound 4 µM): 0.296
- relative viability ([6]; first compound 0.04 µM): 0.679
- relative viability ([6]; first compound 0.1265 µM): 0.673
- relative viability ([6]; first compound 0.4 µM): 0.852
- relative viability ([6]; first compound 4 µM): 0.418
- relative viability ([7]; first compound 0.04 µM): 0.694
- relative viability ([7]; first compound 0.1265 µM): 0.701
- relative viability ([7]; first compound 0.4 µM): 0.646
- relative viability ([7]; first compound 4 µM): 0.666
- relative viability ([8]; first compound 0.04 µM): 0.578
- relative viability ([8]; first compound 0.1265 µM): 0.603
- relative viability ([8]; first compound 0.4 µM): 0.597
- relative viability ([8]; first compound 4 µM): 0.551
- relative viability ([9]; first compound 0.04 µM): 0.546
- relative viability ([9]; first compound 0.1265 µM): 0.485
- relative viability ([9]; first compound 0.4 µM): 0.537
- relative viability ([9]; first compound 4 µM): 0.656
- relative viability ([10]; first compound 0.04 µM): 0.465
- relative viability ([10]; first compound 0.1265 µM): 0.417
- relative viability ([10]; first compound 0.4 µM): 0.415
- relative viability ([10]; first compound 4 µM): 0.4
- relative viability ([11]; first compound 0.04 µM): 0.828
- relative viability ([11]; first compound 0.1265 µM): 0.797
- relative viability ([11]; first compound 0.4 µM): 0.763
- relative viability ([11]; first compound 4 µM): 0.881
- relative viability ([12]; first compound 0.04 µM): 0.518
- relative viability ([12]; first compound 0.1265 µM): 0.387
- relative viability ([12]; first compound 0.4 µM): 0.306
- relative viability ([12]; first compound 4 µM): 0.197
- relative viability ([13]; first compound 0.04 µM): 0.647
- relative viability ([13]; first compound 0.1265 µM): 0.506
- relative viability ([13]; first compound 0.4 µM): 0.52
- relative viability ([13]; first compound 4 µM): 0.58
- relative viability ([14]; first compound 0.04 µM): 0.97
- relative viability ([14]; first compound 0.1265 µM): 0.611
- relative viability ([14]; first compound 0.4 µM): 0.476
- relative viability ([14]; first compound 4 µM): 0.477
- relative viability ([15]; first compound 0.04 µM): 0.708
- relative viability ([15]; first compound 0.1265 µM): 0.579
- relative viability ([15]; first compound 0.4 µM): 0.677
- relative viability ([15]; first compound 4 µM): 0.647
- relative viability ([16]; first compound 0.04 µM): 0.392
- relative viability ([16]; first compound 0.1265 µM): 0.429
- relative viability ([16]; first compound 0.4 µM): 0.385
- relative viability ([16]; first compound 4 µM): 0.39
- relative viability ([17]; first compound 0.04 µM): 0.519
- relative viability ([17]; first compound 0.1265 µM): 0.669
- relative viability ([17]; first compound 0.4 µM): 0.497
- relative viability ([17]; first compound 4 µM): 0.558
- relative viability ([18]; first compound 0.04 µM): 0.765
- relative viability ([18]; first compound 0.1265 µM): 0.71
- relative viability ([18]; first compound 0.4 µM): 0.689
- relative viability ([18]; first compound 4 µM): 0.72
- relative viability ([19]; first compound 0.04 µM): 0.779
- relative viability ([19]; first compound 0.1265 µM): 0.829
- relative viability ([19]; first compound 0.4 µM): 0.86
- relative viability ([19]; first compound 4 µM): 0.777
- relative viability ([20]; first compound 0.04 µM): 0.712
- relative viability ([20]; first compound 0.1265 µM): 0.648
- relative viability ([20]; first compound 0.4 µM): 0.613
- relative viability ([20]; first compound 4 µM): 0.448
- relative viability ([21]; first compound 0.04 µM): 0.393
- relative viability ([21]; first compound 0.1265 µM): 0.4
- relative viability ([21]; first compound 0.4 µM): 0.386
- relative viability ([21]; first compound 4 µM): 0.237
- relative viability ([22]; first compound 0.04 µM): 0.485
- relative viability ([22]; first compound 0.1265 µM): 0.643
- relative viability ([22]; first compound 0.4 µM): 0.5
- relative viability ([22]; first compound 4 µM): 0.493
- relative viability ([23]; first compound 0.04 µM): 0.761
- relative viability ([23]; first compound 0.1265 µM): 0.662
- relative viability ([23]; first compound 0.4 µM): 0.591
- relative viability ([23]; first compound 4 µM): 0.449
- relative viability ([24]; first compound 0.04 µM): 0.45
- relative viability ([24]; first compound 0.1265 µM): 0.601
- relative viability ([24]; first compound 0.4 µM): 0.408
- relative viability ([24]; first compound 4 µM): 0.509
